Columns and labels:
[1] = tested on: F1 hybrids FS1-FS4 x Fidel and Fidel wheat; assay: Genetic Condition Studies Experiment 1, F1 hybrids sprayed; type: in vivo
Source text: Experiment 1: Six flats containing Metro Mix 350™ are planted with F1 hybrids derived from each of the following crosses: FS1×Fidel: FS2×Fidel; FS3×Fidel; FS4×Fidel and Fidel (susceptible, parental cultivar). One week later, the flats are sprayed, one flat per herbicide rate, with PURSUIT™ at 50, 100, 150, 200, and 250 g/ha to determine the genetic condition of the herbicide resistant trait in the selections, FS1-FS4. The herbicide is applied with a laboratory belt sprayer at a rate of 950 L/ha with a belt speed of 12.5 sec/rev using sprayer nozzle #40015E. Tween 20™ is used as the surfactant at 0.25% v/v in the herbicide solutions. Plants are rated 10 days after herbicide treatment.

[2] = tested on: F2 of intercrosses between wheat selections FS1-FS4; assay: Genetic Condition Studies Experiment 5, allelism (Table 3); type: in vivo; details: 200 g/ha, after treatment
Source text: Experiment 5: Crosses and reciprocal crosses are made between the four mutant wheat selections. The F1 seed from these crosses is planted and the plants allowed to self. The F2 seed is harvested and used in this experiment to determine allelism of the four selections. Whole-flats are filled with Metro Mix 350™ and are sown with 100 seeds per cross (four rows with 25 seeds/row). In addition a row of susceptible Fidel is sown in each flat. Three sources from each cross are used. When the seedlings reach the Z12 stage, the flats are sprayed with PURSUIT™ at 200 g/ha. The PURSUIT™ solution is applied as previously described. […]

[3] = tested on: reciprocally crossed and selfed progeny of mutant wheat selections; assay: Genetic Condition Studies Experiment 2, reciprocal crosses and selfed progeny; type: in vivo; details: 200 g/ha postemergence
Source text: Experiment 2: This experiment continues the evaluation of the mutant wheat selections by examining herbicide resistance in reciprocal crossed and selfed material. Reciprocal crosses are made between M3 plants representing each of the original four mutant selections and between these selections and Fidel. Progeny of these crosses as well as selfed progeny of the plants used in the crosses are planted in 6 inch azalea pots in Metro Mix 350™. Ten pots of each cross are planted with two seeds planted per pot. Ten days later, all of the selfed and reciprocally crossed progeny are sprayed postemergence with PURSUIT™ at 200 g/ha. Herbicide treatment is applied as described in Experiment 1. Plants are thinned to one plant per pot (by removing the weaker of the two plants per pot) one week after herbicide treatment. There is 100% germination of seed from the mutant reciprocal crosses and greater than 90% germination of seed from the selfed mutants.

[4] = tested on: F2 progeny of Fidel x FS1-FS4 crosses and Fidel; assay: Genetic Condition Studies Experiment 4, F2 of (Fidel x FS) selfed; type: in vivo, wheat; details: 200 g/ha postemergence
Source text: Experiment 4: The resistant wheat selections, FS1-FS4, are crossed to Fidel and the F1 seed from these crosses is selfed. The crosses are as follows: (Fidel×FS1) selfed (Fidel×FS2) selfed (Fidel×FS3) selfed (Fidel×FS4) selfed
The F2 progeny from these crosses and their susceptible progenitor variety Fidel are planted in flats. Five F2 progenies are used for each of the four crosses. One flat is planted of each progeny for each cross. The flats consist of six rows per flat with 25 seeds per row. The flats are sprayed postemergence with 200 g/ha PURSUIT™ eleven days later. The PURSUIT™ is applied as previously described.

CCc1cnc(C2=NC(C)(C(C)C)C(=O)N2)c(C(=O)O)c1 (stereo not shown) [PURSUIT, 5-ethyl-2-(4-isopropyl-4-methyl-5-oxo-2-imidazolin-2-yl)-nicotinic acid]
rate at which Fidel is killed ([1]; Fidel, rated 10 days after treatment): 150 g/ha
damage to Fidel ([1]; Fidel, rates of 50 and 100 g/ha): severely injured
damage to F1 hybrids ([1]; hybrids FS1-FS4 x Fidel, 250 g/ha, rated 10 days after treatment): stunted but not killed
Resist: number of plants resistant ([2]; F2 source (FS1/FS2)X-1): 71
Suscept: number of plants susceptible ([2]; F2 source (FS1/FS2)X-1): 1
Resist: number of plants resistant ([2]; F2 source (FS1/FS2)X-2): 85
Suscept: number of plants susceptible ([2]; F2 source (FS1/FS2)X-2): 2
Resist: number of plants resistant ([2]; F2 source (FS1/FS2)X-3): 74
Suscept: number of plants susceptible ([2]; F2 source (FS1/FS2)X-3): 1
Resist: number of plants resistant ([2]; F2 source (FS1/FS3)X-1): 82
Suscept: number of plants susceptible ([2]; F2 source (FS1/FS3)X-1): 0
Resist: number of plants resistant ([2]; F2 source (FS1/FS3)X-2): 92
Suscept: number of plants susceptible ([2]; F2 source (FS1/FS3)X-2): 0
Resist: number of plants resistant ([2]; F2 source (FS1/FS3)X-3): 93
Suscept: number of plants susceptible ([2]; F2 source (FS1/FS3)X-3): 0
Resist: number of plants resistant ([2]; F2 source (FS1/FS4)X-1): 96
Suscept: number of plants susceptible ([2]; F2 source (FS1/FS4)X-1): 0
Resist: number of plants resistant ([2]; F2 source (FS1/FS4)X-2): 90
Suscept: number of plants susceptible ([2]; F2 source (FS1/FS4)X-2): 0
Resist: number of plants resistant ([2]; F2 source (FS1/FS4)X-3): 93
Suscept: number of plants susceptible ([2]; F2 source (FS1/FS4)X-3): 2
Resist: number of plants resistant ([2]; F2 source (FS2/FS1)X-1): 95
Suscept: number of plants susceptible ([2]; F2 source (FS2/FS1)X-1): 0
Resist: number of plants resistant ([2]; F2 source (FS2/FS1)X-2): 91
Suscept: number of plants susceptible ([2]; F2 source (FS2/FS1)X-2): 0
Resist: number of plants resistant ([2]; F2 source (FS2/FS1)X-3): 97
Suscept: number of plants susceptible ([2]; F2 source (FS2/FS1)X-3): 0
Resist: number of plants resistant ([2]; F2 source (FS2/FS3)X-1): 99
Suscept: number of plants susceptible ([2]; F2 source (FS2/FS3)X-1): 0
Resist: number of plants resistant ([2]; F2 source (FS2/FS3)X-2): 87
Suscept: number of plants susceptible ([2]; F2 source (FS2/FS3)X-2): 1
Resist: number of plants resistant ([2]; F2 source (FS2/FS3)X-3): 92
Suscept: number of plants susceptible ([2]; F2 source (FS2/FS3)X-3): 0
Resist: number of plants resistant ([2]; F2 source (FS2/FS4)X-1): 102
Suscept: number of plants susceptible ([2]; F2 source (FS2/FS4)X-1): 0
Resist: number of plants resistant ([2]; F2 source (FS2/FS4)X-2): 97
Suscept: number of plants susceptible ([2]; F2 source (FS2/FS4)X-2): 0
Resist: number of plants resistant ([2]; F2 source (FS2/FS4)X-3): 97
Suscept: number of plants susceptible ([2]; F2 source (FS2/FS4)X-3): 1
Resist: number of plants resistant ([2]; F2 source (FS3/FS1)X-2): 95
Suscept: number of plants susceptible ([2]; F2 source (FS3/FS1)X-2): 0
Resist: number of plants resistant ([2]; F2 source (FS3/FS1)X-3): 97
Suscept: number of plants susceptible ([2]; F2 source (FS3/FS1)X-3): 0
Resist: number of plants resistant ([2]; F2 source (FS3/FS1)X-5): 94
Suscept: number of plants susceptible ([2]; F2 source (FS3/FS1)X-5): 1
Resist: number of plants resistant ([2]; F2 source (FS3/FS2)X-1): 96
Suscept: number of plants susceptible ([2]; F2 source (FS3/FS2)X-1): 0
Resist: number of plants resistant ([2]; F2 source (FS3/FS2)X-2): 94
Suscept: number of plants susceptible ([2]; F2 source (FS3/FS2)X-2): 0
Resist: number of plants resistant ([2]; F2 source (FS3/FS2)X-3): 96
Suscept: number of plants susceptible ([2]; F2 source (FS3/FS2)X-3): 0
Resist: number of plants resistant ([2]; F2 source (FS3/FS4)X-1): 98
Suscept: number of plants susceptible ([2]; F2 source (FS3/FS4)X-1): 0
Resist: number of plants resistant ([2]; F2 source (FS3/FS4)X-2): 96
Suscept: number of plants susceptible ([2]; F2 source (FS3/FS4)X-2): 0
Resist: number of plants resistant ([2]; F2 source (FS3/FS4)X-3): 96
Suscept: number of plants susceptible ([2]; F2 source (FS3/FS4)X-3): 0
Resist: number of plants resistant ([2]; F2 source (FS4/FS1)X-1): 93
Suscept: number of plants susceptible ([2]; F2 source (FS4/FS1)X-1): 1
Resist: number of plants resistant ([2]; F2 source (FS4/FS1)X-2): 91
Suscept: number of plants susceptible ([2]; F2 source (FS4/FS1)X-2): 0
Resist: number of plants resistant ([2]; F2 source (FS4/FS1)X-3): 94
Suscept: number of plants susceptible ([2]; F2 source (FS4/FS1)X-3): 1
Resist: number of plants resistant ([2]; F2 source (FS4/FS2)X-1): 94
Suscept: number of plants susceptible ([2]; F2 source (FS4/FS2)X-1): 0
Resist: number of plants resistant ([2]; F2 source (FS4/FS2)X-2): 95
Suscept: number of plants susceptible ([2]; F2 source (FS4/FS2)X-2): 1
Resist: number of plants resistant ([2]; F2 source (FS4/FS2)X-3): 95
Suscept: number of plants susceptible ([2]; F2 source (FS4/FS2)X-3): 0
Resist: number of plants resistant ([2]; F2 source (FS4/FS3)X-1): 96
Suscept: number of plants susceptible ([2]; F2 source (FS4/FS3)X-1): 0
Resist: number of plants resistant ([2]; F2 source (FS4/FS3)X-2): 100
Suscept: number of plants susceptible ([2]; F2 source (FS4/FS3)X-2): 0
Resist: number of plants resistant ([2]; F2 source (FS4/FS3)X-3): 94
Suscept: number of plants susceptible ([2]; F2 source (FS4/FS3)X-3): 0
Resist: number of plants resistant ([2]; Total of (FS1/FS2) sources): 230
Suscept: number of plants susceptible ([2]; Total of (FS1/FS2) sources): 4
Resist: number of plants resistant ([2]; Total of (FS1/FS3) sources): 267
Suscept: number of plants susceptible ([2]; Total of (FS1/FS3) sources): 0
Resist: number of plants resistant ([2]; Total of (FS1/FS4) sources): 279
Suscept: number of plants susceptible ([2]; Total of (FS1/FS4) sources): 2
Resist: number of plants resistant ([2]; Total of (FS2/FS1) sources): 283
Suscept: number of plants susceptible ([2]; Total of (FS2/FS1) sources): 0
Resist: number of plants resistant ([2]; Total of (FS2/FS3) sources): 278
Suscept: number of plants susceptible ([2]; Total of (FS2/FS3) sources): 1
Resist: number of plants resistant ([2]; Total of (FS2/FS4) sources): 296
Suscept: number of plants susceptible ([2]; Total of (FS2/FS4) sources): 1
Resist: number of plants resistant ([2]; Total of (FS3/FS1) sources): 286
Suscept: number of plants susceptible ([2]; Total of (FS3/FS1) sources): 1
Resist: number of plants resistant ([2]; Total of (FS3/FS2) sources): 286
Suscept: number of plants susceptible ([2]; Total of (FS3/FS2) sources): 0
Resist: number of plants resistant ([2]; Total of (FS3/FS4) sources): 290
Suscept: number of plants susceptible ([2]; Total of (FS3/FS4) sources): 0
Resist: number of plants resistant ([2]; Total of (FS4/FS1) sources): 278
Suscept: number of plants susceptible ([2]; Total of (FS4/FS1) sources): 2
Resist: number of plants resistant ([2]; Total of (FS4/FS2) sources): 284
Suscept: number of plants susceptible ([2]; Total of (FS4/FS2) sources): 1
Resist: number of plants resistant ([2]; Total of (FS4/FS3) sources): 290
Suscept: number of plants susceptible ([2]; Total of (FS4/FS3) sources): 0
damage to mutant crosses [3]: None of the mutant crosses is damaged
segregation ratio of F2 progenies ([4]; F2 of each of the four crosses (Fidel x FS1-FS4) selfed): 3 (resistant): 1 (susceptible)
lethality ([4]; plants heterozygous or homozygous for resistance): non-lethal
lethality ([4]; susceptible wheat): lethal to susceptible wheat

From patent US7034208B1, “Ahas inhibiting herbicide resistant wheat and method for selection thereof” (BASF Aktiengellschaft, priority 1991, dated 2006)
